Test systems include A549 NSCLC; HCT-116 colon; HCT-15 colon; HL-60(TB) leukemia; MDA-MB-435; NCI-H460 lung; NCI/ADR-RES ovarian; OVCAR-3 ovarian; OVCAR-4 ovarian; SNB-75 CNS.
Assay in all cases: DTP human tumour cell line panel, 48 h

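Method: 48-hour compound exposure of cells in 96-well plates, five concentrations, linear interpolation of endpoints. Here, GI50 denotes the concentration required for 50% inhibition of growth. TGI marks complete inhibition of growth.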

This passage reports GI50 and TGI results from PubChem BioAssay (NCI).

Usually GI50 stands for the concentration giving 50% growth inhibition. Broadly, the TGI is the concentration at which net growth stops. High values mean less potent growth arrest, low ones more potent growth arrest.

Turning to `C=C1C(=O)O[C@H]2[C@H]1CC/C(COC(=O)NCCc1ccc(OC)cc1)=C\CC[C@@]1(C)O[C@@H]21`, the GI50 was 13.2 µM in the experiment with A549 NSCLC; 1.34 µM in the experiment on HCT-116 colon; 1.74 µM in the experiment with HCT-15 colon; 2.34 µM with HL-60(TB) leukemia; 3.53 µM in the experiment with MDA-MB-435; 12.2 µM in the experiment on NCI-H460 lung. The GI50 was 10 µM in the experiment on NCI/ADR-RES ovarian, 2.19 µM in the experiment on OVCAR-3 ovarian, 3.41 µM in the experiment on OVCAR-4 ovarian and 4.09 µM in the experiment with SNB-75 CNS. Further, the TGI with A549 NSCLC was 28.4 µM; in the experiment on HCT-116 colon it was 2.84 µM; with HCT-15 colon, 4.01 µM; in the experiment on HL-60(TB) leukemia it was 5.72 µM; in the experiment with MDA-MB-435 it was 11.8 µM; in the experiment with NCI-H460 lung, 35.2 µM. Besides, the TGI with NCI/ADR-RES ovarian is 32.6 µM; in the experiment with OVCAR-3 ovarian it was 5.25 µM; in the experiment with OVCAR-4 ovarian, 13.6 µM; in the experiment with SNB-75 CNS, 16.6 µM.
With `O=c1c2cc(Br)ccc2oc2ccc(Br)cc12`, the TGI with A549 NSCLC, in the experiment with HCT-116 colon, in the experiment with HCT-15 colon, in the experiment on HL-60(TB) leukemia, in the experiment with MDA-MB-435 and in the experiment with NCI-H460 lung was greater than 100 µM in each case. The TGI in the experiment on NCI/ADR-RES ovarian, with OVCAR-3 ovarian, in the experiment with OVCAR-4 ovarian and with SNB-75 CNS was greater than 100 µM each time.
Take `FC(F)(F)c1ccc2c(c1)N(CCCN1CCN(C3CC3)CC1)c1ccccc1S2`: the GI50 was 10.9 µM with A549 NSCLC; 9.43 µM with HCT-116 colon; 3.81 µM with HCT-15 colon; 6.03 µM with HL-60(TB) leukemia; 12.2 µM in the experiment with MDA-MB-435; 5.99 µM in the experiment with NCI-H460 lung. The GI50 in the experiment with NCI/ADR-RES ovarian is 10.3 µM; in the experiment with OVCAR-3 ovarian, 7.11 µM; in the experiment on OVCAR-4 ovarian, 11.1 µM; in the experiment on SNB-75 CNS it was 13.5 µM. The total growth inhibition concentration (TGI) in the experiment on A549 NSCLC is 23.5 µM; in the experiment with HCT-116 colon, 23.2 µM; with HCT-15 colon, 18.6 µM; in the experiment on HL-60(TB) leukemia it was 23.3 µM; in the experiment on MDA-MB-435, 27.6 µM; in the experiment with NCI-H460 lung it was 19.8 µM. For the same molecule, the TGI in the experiment with NCI/ADR-RES ovarian worked out at 23.1 µM; in the experiment with OVCAR-3 ovarian it was 20.3 µM; in the experiment with OVCAR-4 ovarian, 23.7 µM; in the experiment on SNB-75 CNS, 28.1 µM.
Take `CCOC(=O)c1cc2c(cc1Cl)SC(N(c1ccc(F)cc1)S(=O)(=O)c1ccc(OC)cc1)=NS2(=O)=O`: the GI50 was 22 µM with A549 NSCLC; 17.1 µM with HCT-116 colon; 14.8 µM in the experiment on HCT-15 colon; 18.5 µM in the experiment with HL-60(TB) leukemia; 14.8 µM in the experiment with MDA-MB-435; 17 µM with NCI-H460 lung. Besides, the GI50 was 21.2 µM in the experiment with NCI/ADR-RES ovarian, 13.9 µM in the experiment on OVCAR-3 ovarian, 14.9 µM in the experiment with OVCAR-4 ovarian and 18.3 µM in the experiment on SNB-75 CNS. Further, the TGI in the experiment with A549 NSCLC is greater than 100 µM; with HCT-116 colon, 32 µM; in the experiment on HCT-15 colon it was 27.9 µM; in the experiment on HL-60(TB) leukemia, 42.4 µM; in the experiment on MDA-MB-435 it was 44.7 µM; in the experiment with NCI-H460 lung, 36.2 µM. In addition, the TGI in the experiment with NCI/ADR-RES ovarian was found to be 42.1 µM; in the experiment with OVCAR-3 ovarian, 28.3 µM; with OVCAR-4 ovarian, 39.5 µM; with SNB-75 CNS, 47.4 µM.
In the case of `C#Cc1cccc(NC(=O)Nc2ccc(NC(=O)CCl)cc2)c1`, the GI50 in the experiment on A549 NSCLC is greater than 82.5 µM; in the experiment with HCT-116 colon, 20.1 µM; in the experiment on HCT-15 colon, 15.4 µM; in the experiment with HL-60(TB) leukemia, 14.9 µM; with MDA-MB-435 it was 22.1 µM; in the experiment on NCI-H460 lung, 22 µM. In addition, the GI50 with NCI/ADR-RES ovarian was 23.3 µM; in the experiment with OVCAR-3 ovarian, 12.1 µM; with OVCAR-4 ovarian, 12.2 µM; with SNB-75 CNS, 8.39 µM. In addition, the TGI in the experiment on A549 NSCLC was greater than 82.5 µM; in the experiment on HCT-116 colon, greater than 82.5 µM; in the experiment with HCT-15 colon it was 36.3 µM; in the experiment on HL-60(TB) leukemia, 33.4 µM; with MDA-MB-435 it was greater than 82.5 µM; in the experiment on NCI-H460 lung, greater than 82.5 µM. Besides, the concentration for total growth inhibition (TGI) is 70 µM with NCI/ADR-RES ovarian, 25.5 µM with OVCAR-3 ovarian, 28.6 µM in the experiment on OVCAR-4 ovarian and 19.1 µM in the experiment on SNB-75 CNS.
As for `Nc1cc(N)c2nc(-c3ccccc3)c(Nc3ccc(F)cc3)nc2c1`, the GI50 in the experiment with A549 NSCLC was 17.2 µM; in the experiment with HCT-116 colon, 20.1 µM; in the experiment on HCT-15 colon it was 12.7 µM; with HL-60(TB) leukemia, 11.3 µM; in the experiment on MDA-MB-435, 7.34 µM; with NCI-H460 lung it was 26.4 µM. Further, the GI50 with NCI/ADR-RES ovarian was 23.8 µM; in the experiment on OVCAR-3 ovarian it was 4.66 µM; in the experiment with OVCAR-4 ovarian, 13.4 µM; in the experiment with SNB-75 CNS, 20.8 µM. Also, the concentration for total growth inhibition (TGI) with A549 NSCLC is 44.6 µM; in the experiment with HCT-116 colon, greater than 100 µM; with HCT-15 colon, 38.1 µM; in the experiment on HL-60(TB) leukemia it was greater than 100 µM; with MDA-MB-435, 20.8 µM; in the experiment with NCI-H460 lung, greater than 100 µM. The TGI came to 57.5 µM in the experiment with NCI/ADR-RES ovarian, 17.8 µM with OVCAR-3 ovarian, 48.8 µM in the experiment with OVCAR-4 ovarian and 41.9 µM in the experiment on SNB-75 CNS.
